Values of other authors as cited in patent US11596597B2, “Depot formulation” (Cipla Limited, priority 2018, dated 2023).

Details: stated in words, no test described

| solubility in water | Molecule |
| --- | --- |
| freely soluble | 7,8,9,10-tetrahydro-6,10-methano-6H-pyrazino [2,3-h] [3]-benzazepine, (2R, 3R)-2,3-dihydroxybutanedioate [Varenicline salt] |
| practically insoluble | c1cnc2cc3c(cc2n1)[C@@H]1CNC[C@H]3C1 [varenicline base] |
